Laboratory results: patent US12691100B2, “NMT inhibitor treatment of a senescence-associated disease or disorder of the liver” (Imperial College Innovations Limited, priority 2020, dated 2026)

How the values were obtained:
Format in all cases: cell-based, human
IMR90 ER:RAS cells [1] = experiment: Intracellular levels of SASP cytokines IL-6 and IL-8 by immunofluorescence; conditions: 4OHT-induced senescent cells; 7 days after addition of the drugs; FIGS. 12A-C
Protocol: Immunofluorescence staining was carried out by first fixing wells of 96 well plate at desired timepoint for 1 hour using 4% PFA (w/v, in PBS) followed by washing 3 times with PBS. Wells were then permeabilized using 0.2% Triton® X-100 (v/v, PBS) for 10 min or with 0.5% Triton® X-100 (v/v, PBS) for COPI staining. Wells were then washed twice with PBS to halt permeabilization and then non-specific antibody binding blocked by incubation with a blocking solution for 1 hour at RT. Blocking solution contained 1% BSA (w/v, PBS) supplemented with 0.4% Fish Skin Gelatin (v/v, PBS). Primary antibodies were diluted in respective blocking solution (see ‘Antibodies’ for dilutions), blocking solution removed from well and incubated with primary antibody solution for 1 hour at RT. […]
(§1) High content image analysis was carried out using the InCell Investigator 2.7.3 software (GE Healthcare®). […] Quantification for nuclear staining was measured as average pixel intensity (grey scale) for the wavelength of fluorophore across the area of the nuclear mask. Cytoplasmic staining quantification was of either the average pixel intensity or the coefficient of variance of pixel intensities within collar area. […]
The intracellular levels of two SASP components, IL-6 and IL-8 were assessed using stained cells. […]

IMR90 ER:RAS cells [2] = experiment: Golgi dispersal by TGN46 staining, high throughput microscopy; conditions: 4OHT-induced senescent cells; 7 days after addition of the drugs; FIGS. 10A-B
Protocol: (§2) Immunofluorescence staining was carried out by first fixing wells of 96 well plate at desired timepoint for 1 hour using 4% PFA (w/v, in PBS) followed by washing 3 times with PBS. Wells were then permeabilized using 0.2% Triton® X-100 (v/v, PBS) for 10 min or with 0.5% Triton® X-100 (v/v, PBS) for COPI staining. Wells were then washed twice with PBS to halt permeabilization and then non-specific antibody binding blocked by incubation with a blocking solution for 1 hour at RT. Blocking solution contained 1% BSA (w/v, PBS) supplemented with 0.4% Fish Skin Gelatin (v/v, PBS). Primary antibodies were diluted in respective blocking solution (see ‘Antibodies’ for dilutions), blocking solution removed from well and incubated with primary antibody solution for 1 hour at RT. For BrdU staining primary antibody solution is supplemented with 0.5 U/ul DNase (Sigma) and 1 mM MgCl2 and incubation times reduced to 30 minutes. […]
as §1

IMR90 ER:RAS cells [3] = experiment: Unfolded protein response markers (CHOP, XBP1, ATF6) by high throughput microscopy; conditions: 4OHT treated and control cells; FIGS. 13A-D
Protocol: as §2, §1

IMR90 ER:RAS cells [4] = experiment: Senolytic activity under IRE1 inhibition with KIRA6; conditions: with 600 nM KIRA6, 4OHT treated cells; FIGS. 15A-B
Protocol: High-throughput microscopy survival assay—To assess senolytic effect of drugs, cells were cultured for 7 days, culture media was changed to DM0.5 media and drugs in DMSO were added (<5% v/v final concentration), drugs were replenished after 3 days if assay length was longer than 72 h. Wells were fixed in 4% PFA for 1 hour at day 10 to 14, washed 3 times with PBS and then stained with 1 μg/mL DAPI (w/v, PBS) for 10 minutes. Wells were then washed 3 times with PBS. Optionally plates could be stored at 4° C. for up to 2 weeks and DAPI stained. Image acquisition of DAPI stained cells was performed on an automated InCell Analyser 2000 (GE Healthcare®) and high-content analysis on the InCell Investigator 2.7.3 software used to quantify number of DAPI positive cells per well. A top-hat method was used to segment cell-nuclei based on DAPI stained area and a minimum nuclear area threshold of 80 μm used to exclude debris. For cancer cell lines, nuclear area threshold was reduced to 40 μm. Survival was measured as cell counts relative to DMSO treated quiescent or senescent cells.
To investigate whether the activation of UPR caused by NMT inhibition in senescent cells was responsible for the senolytic potential of NMT inhibitors, cells were treated with KIRA6, a selective inhibitor of IRE1, a kinase necessary for the UPR. IMR90 ER:RAS cells undergoing senescence (after induction with 4OHT), were treated with 600 nM KIRA6 (an IRE1 inhibitor) on day 4 post-induction. On day 7 post-induction, cells were treated with Compound 1 or 2 and 600 nM KIRA6. […] Both NMT inhibitor and Kira6 were replenished 3 days after addition of NMT inhibitor (at day 10 post-induction). Data is shown as mean±SD, n represents independent biological experiments.

Row | Compound | Intracellular levels of IL-6 and IL-8 (IMR90 ER:RAS cells [1]) | Golgi dispersal (TGN46 distribution) (IMR90 ER:RAS cells [2]) | UPR activation (nuclear CHOP, XBP1, ATF6; percentage of cells above threshold) (IMR90 ER:RAS cells [3]) | Dependence of senolytic activity on IRE1 / UPR (IMR90 ER:RAS cells [4])
1 | Cc1nn(C)c(C)c1CCOc1c(-c2ccc3c(c2)c(CN(C)C)nn3C)ccc(F)c1F [Compound 1, 1-(5-(3,4-difluoro-2-(2-(1,3,5-trimethyl-1H-pyrazol-4-yl)ethoxy)phenyl)-1-methyl-1H-indazol-3-yl)-N,N-dimethylmethanamine] | selectively resulted in an intracellular accumulation of these cytokines on senescent cells | selectively caused Golgi dispersal on senescent cells | causes the induction of the unfolded protein response on senescent cells | dependent on IRE1 and the unfolded protein response
2 | Cc1c(NS(=O)(=O)c2c(Cl)cc(-c3ccnc(N4CCNCC4)c3)cc2Cl)c(CC(C)C)nn1C [Compound 2] | selectively resulted in an intracellular accumulation of these cytokines on senescent cells | selectively caused Golgi dispersal on senescent cells | causes the induction of the unfolded protein response on senescent cells | dependent on IRE1 and the unfolded protein response
